Assay results taken from ChEMBL document CHEMBL1201862, “PubChem BioAssay data set” (2004).
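Five compound concentrations were applied to cells in 96-well plates for 48 hours; endpoints were derived by simple linear interpolation of the resulting dose-response curve. At the GI50, growth is halved.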 Activity calls are given as the source filed them. Rule as the data show it: active = GI50 up to about 1.1 µM and inactive = higher.

Columns and labels:
Experiment in all cases: NCI tumour cell line growth inhibition, 48 h
[1] = test system: MDA-N
[2] = test system: BT-549
[3] = test system: M19-MEL
[4] = test system: KM-20L2
[5] = test system: XF498
[6] = test system: DMS-114
[7] = test system: HOP-18
[8] = test system: SNB-78

SMILES | GI50 [1] | GI50 [2] | other results
CN(C)c1ccc(NN=C2SC(=N\c3ccccc3)/C(=N/c3ccccc3)S2)cc1 | 20.3 µM (inactive) | – | –
CC(O)c1cc2c(s1)C(=O)c1sccc1C2=O (stereo not given) | 0.0198 µM (active) | 0.0646 µM (active) | –
NC(=O)C1CCCNC1 (stereo not given) | > 100 µM (inactive) | > 100 µM (inactive) | –
Cc1cc(C)nc(NC(=O)COc2ccc(Cl)cc2)c1 | > 100 µM (inactive) | > 100 µM (inactive) | –
N#Cc1c(N)n(C2OC(CO)C(O)C2O)c2ncnc(N)c12 (stereo not given) | – | 0.152 µM (active) | –
N#CC12CNCC1CN=N2 (stereo not given) | > 100 µM (inactive) | > 100 µM (inactive) | –
O=C1c2c(c(-c3ccccc3)c(-c3ccccc3)c(-c3ccccc3)c2-c2ccccc2)C(=O)N1c1cccc(Br)c1 | – | – | GI50 [3]: > 100 µM (inactive); GI50 [4]: > 100 µM (inactive); GI50 [5]: > 100 µM (inactive); GI50 [6]: > 100 µM (inactive); GI50 [7]: > 100 µM (inactive); GI50 [8]: > 100 µM (inactive)
CCN(CCCl)c1cc(CN(C)C)cc(NC(=O)C23CCC(C(=O)Nc4cc(CN(C)C)cc(N(CC)CCCl)c4)(CC2)CC3)c1 | 1.12 µM (inactive) | – | –
COc1ccc(OC)c(/N=C/c2cc(OC)c(OC)c(OC)c2)c1 | 40.1 µM (inactive) | > 78.9 µM (inactive) | –
O=C1OC2C(O)C(=O)OC2C1O (stereo not given) | > 100 µM (inactive) | – | –
COc1ccc(C[C@@H]2CN(C(=O)c3ccccc3)[C@H](Cc3ccc(O)cc3)CN2C(=O)c2ccccc2)cc1Br | – | > 100 µM (inactive) | –
COC(=O)CC1C2(C)C3=C(C)C(c4ccoc4)CC3OC2C2OC(=O)C3(C)C=CC(=O)C1(C)C23 (stereo not given) | 0.385 µM (active) | 0.9 µM (active) | –
COc1ccc(C/C=C(\C)CCO)cc1 | > 100 µM (inactive) | > 100 µM (inactive) | –
COC(=O)CNC(=O)/C=C/[C@H](O[Si](C)(C)C(C)(C)C)[C@H](/C=C/C(=O)NCC(=O)OC)O[Si](C)(C)C(C)(C)C | > 25 µM (inactive) | > 25 µM (inactive) | –
COc1cc(C(c2cccc3ccccc23)N2C(=O)CCC2C(=O)O)cc(OC)c1OC (stereo not given) | > 100 µM (inactive) | > 100 µM (inactive) | –
C=CC(C)(C)C(=C)C(=O)N(C)c1ccccc1I | > 100 µM (inactive) | – | –
CC1=CC(c2ccccc2)OP1(=O)c1ccccc1 (stereo not given) | > 100 µM (inactive) | – | –
O=C(NC(=O)c1cn(CCNCCO)c(=O)[nH]c1=O)OCc1ccccc1 | – | – | GI50 [3]: > 100 µM (inactive); GI50 [6]: > 100 µM (inactive); GI50 [7]: < 0.01 µM (active); GI50 [8]: > 100 µM (inactive)
CC(=O)Nc1ccc(-c2nnc(SCC(=O)Nc3ccc(Cl)cc3)o2)cc1 | – | – | GI50 [3]: 11.7 µM (inactive); GI50 [4]: 16.4 µM (inactive); GI50 [6]: 1.85 µM (inactive); GI50 [7]: 15 µM (inactive); GI50 [8]: 46.2 µM (inactive)

SMILES | GI50 [1] | GI50 [2] | other results
CC(=O)O[C@H]1CC[C@@]2(C)C(=CC[C@@H]3C2CC[C@]2(C)Nc4nc5ccccc5cc4CC32)C1 (stereo not given in full) | – | – | GI50 [3]: 3.59 µM (inactive); GI50 [4]: 1.77 µM (inactive); GI50 [5]: 5.89 µM (inactive); GI50 [6]: 5.4 µM (inactive); GI50 [7]: 3.94 µM (inactive); GI50 [8]: 6.01 µM (inactive)
Cc1cc2c3c([nH]c2c2ccnc(C)c12)CCCC3 | 1.78 µM (inactive) | – | –
O=C(C/N=C(\CN(c1ccccc1)c1ccccc1)Oc1c(Cl)cc(Cl)cc1Cl)N1c2ccccc2Sc2ccccc21 | 51.1 µM (inactive) | 17.3 µM (inactive) | –
CNC1(C(=O)O)CC1 | > 100 µM (inactive) | – | –
CC1OC2OC3C(OCC(O)C3O)OC(=O)[C@]34CCC(C)(C)CC3C3=CCC5[C@@]6(C)C[C@H](O)[C@H](OC7OC(CO)C(O)C(O)C7OC7OC(COC(=O)CC(C)(O)CC(=O)OC1C(O)C2O)C(O)C(O)C7O)[C@@](C)(CO)C6CC[C@@]5(C)[C@]3(C)CC4 (stereo not given in full) | 1.52 µM (inactive) | 1.5 µM (inactive) | –
Cc1cc(C)nc(NS(=O)(=O)c2ccc(Nc3nncc(=O)n3N)cc2)n1 | 16 µM (inactive) | 18.4 µM (inactive) | –
COc1c2c(c(OC)c3c(=O)cc(C/C(=N/NC(=O)C[n+]4ccccc4)C(=O)Nc4cc(C)ccc4C)oc13)OCO2 | – | – | GI50 [3]: > 100 µM (inactive); GI50 [4]: > 100 µM (inactive); GI50 [6]: > 100 µM (inactive); GI50 [8]: > 100 µM (inactive)
CN(C)/N=C(/c1nc2ccc([N+](=O)[O-])cc2nc1O)C(O)c1ccco1 (stereo not given) | – | – | GI50 [3]: > 100 µM (inactive); GI50 [4]: 21 µM (inactive); GI50 [5]: > 100 µM (inactive); GI50 [6]: 16.4 µM (inactive); GI50 [8]: > 100 µM (inactive)
O=C(CC(=O)N1N=C(N(c2ccccc2)c2ccccc2)CC1c1ccccc1)Nc1cccc(Cl)c1 (stereo not given) | – | > 100 µM (inactive) | –
O=c1[nH]c2ccc(C(F)(F)F)cc2nc1C(F)(F)F | 35.7 µM (inactive) | 22.2 µM (inactive) | –
Cc1nc(-c2ccccc2)c(C)n2c1nc1ccccc12 | 29.9 µM (inactive) | 23 µM (inactive) | –
CSc1c(CC(=O)O)n(Cc2ccccc2)c2ccccc12 | > 100 µM (inactive) | > 100 µM (inactive) | –
CN(CCc1ccccn1)C(=S)N/N=C/c1ccccn1 | 0.551 µM (active) | – | –
C[n+]1c2ccccc2c(N=[N+]=[N-])c2ccccc21 | – | > 10 µM (inactive) | –
CCCC(C)n1c(C)nc2c1C(=O)c1ccccc1C2=O (stereo not given) | – | – | GI50 [3]: 12.6 µM (inactive); GI50 [4]: 18.9 µM (inactive); GI50 [5]: 20.8 µM (inactive); GI50 [8]: 21.9 µM (inactive)
O=C1c2c(ccc3c2CCCC3)CC12Cc1ccc3c(c1C2=O)CCCC3 | > 100 µM (inactive) | – | –
CCC1=C(c2ccc(OC)cc2)CC[C@@]2(CCNC2=O)[C@@H]1C | > 93.1 µM (inactive) | – | –
C=C(CO)[C@H]1Oc2ccc(C(C)=O)cc2[C@@H]1O | 22.2 µM (inactive) | 33.2 µM (inactive) | –
